The record followed here is US20250163038A1, “CBL-B MODULATORS AND USES THEREOF” (Nimbus Clio, Inc., priority 2021, published 2025).

What is called IC50 is the point on the concentration scale where inhibition reaches its midpoint. Broadly, the EC50 is the concentration that produces a half-maximal response.

Assay [1] has as its target Recombinant human Cbl-b (aa 36-427) (Homo sapiens, UniProt Q13191). Kind of assay: Cbl-b Biochemical Assay (TR-FRET). The note with it: read-out: TR-FRET hCbl-b IC50. Background: Time-resolved FRET reads energy transfer from a long-lived donor to a nearby acceptor.
Assay [2] has as its system Jurkat (clone E6-1) cells with NFAT luciferase reporter. Kind of assay: Jurkat reporter assay (NFAT Luciferase). The assay is classed as cell-based. To be noted: Homo sapiens; Jurkat NFAT luciferase reporter cells, anti-CD3 stimulation, 6 hr; read-out: Jurkat NFAT EC50.
Assay [3] deals with T1, Recombinant human c-Cbl (aa 47-435) (Homo sapiens, UniProt P22681).
T1 sequence (P22681 47-435): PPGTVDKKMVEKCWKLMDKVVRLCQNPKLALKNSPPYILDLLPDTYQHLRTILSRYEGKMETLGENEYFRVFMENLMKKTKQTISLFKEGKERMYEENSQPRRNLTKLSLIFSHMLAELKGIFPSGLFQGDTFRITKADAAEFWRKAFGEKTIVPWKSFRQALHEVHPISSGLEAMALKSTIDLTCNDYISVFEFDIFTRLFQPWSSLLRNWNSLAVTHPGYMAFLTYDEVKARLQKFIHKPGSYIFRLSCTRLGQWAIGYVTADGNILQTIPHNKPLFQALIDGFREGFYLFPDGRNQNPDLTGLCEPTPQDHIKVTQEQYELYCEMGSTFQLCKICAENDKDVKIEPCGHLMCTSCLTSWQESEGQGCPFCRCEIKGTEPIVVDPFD
Kind of assay: c-Cbl Biochemical Assay (TR-FRET). To be noted: hc-Cbl Biochemical Assay (TR-FRET); read-out: TR-FRET hcCbl IC50.

Recombinant human Cbl-b (aa 36-427), sequence (Q13191 36-427): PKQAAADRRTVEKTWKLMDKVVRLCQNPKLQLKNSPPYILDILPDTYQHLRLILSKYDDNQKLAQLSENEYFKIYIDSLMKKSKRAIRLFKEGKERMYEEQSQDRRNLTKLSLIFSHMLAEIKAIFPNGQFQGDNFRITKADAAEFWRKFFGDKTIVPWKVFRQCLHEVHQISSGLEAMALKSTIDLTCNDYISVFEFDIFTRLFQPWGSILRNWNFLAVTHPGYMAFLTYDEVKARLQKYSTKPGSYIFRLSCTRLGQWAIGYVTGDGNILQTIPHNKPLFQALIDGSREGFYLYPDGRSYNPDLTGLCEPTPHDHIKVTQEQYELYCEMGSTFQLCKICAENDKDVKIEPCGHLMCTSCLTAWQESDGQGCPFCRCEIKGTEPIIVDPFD

For the molecule `Cn1cnnc1-c1cc(F)ccc1-c1cccc(-c2nc3cc(NCCC4CCCC4)cc(C(F)(F)F)c3o2)c1` [HM-3, N-(2-Cyclopentylethyl)-2-(4′-fluoro-2′-(4-methyl-4H-1,2,4-triazol-3-yl)-[1,1′-biphenyl]-3-yl)-7-(trifluoromethyl)benzo[d]oxazol-5-amine], the IC50 in assay [1] and in assay [3] was 1000 to 10000 nM throughout. For the same molecule, the EC50 in assay [2] lay in the range of 1000 to 10000 nM.

On to `Cn1cnnc1-c1cc(F)ccc1-c1cc(-c2nc3cc(CN[C@@H]4CCC[C@@H]4O)ccc3o2)cc(C2CC2)c1` [AEQ-2, (1S,2R)-2-[({2-[5-Cyclopropyl-4′-fluoro-2′-(4-methyl-1,2,4-triazol-3-yl)-[1,1′-biphenyl]-3-yl]-1,3-benzoxazol-5-yl}methyl)amino]cyclopentan-1-ol], for which the IC50 in assay [1] and in assay [3] was less than 200 nM in each case. Also, the EC50 in assay [2] is less than 200 nM.

As to `COc1cc(CNCCC2CCC2)cc2nc(-c3cccc(-c4ccc(F)cc4-c4nncn4C)c3)oc12` [GG-2, 2-Cyclobutyl-N-((2-(4′-fluoro-2′-(4-methyl-4H-1,2,4-triazol-3-yl)-[1,1′-biphenyl]-3-yl)-7-methoxybenzo[d]oxazol-5-yl)methyl)ethan-1-amine], the IC50 in assay [1] and in assay [3] was less than 200 nM in each case. The EC50 in assay [2] was 200 to 1000 nM.

On to `CCN(CC[C@@H](O)C(F)(F)F)Cc1cc(C(F)(F)F)c2oc(-c3cccc(-c4ccc(F)cc4-c4nncn4C)c3)nc2c1` [CR-2], for which the IC50 in assay [1] and in assay [3] was less than 200 nM in each case. Besides, the EC50 in assay [2] is 200 to 1000 nM.

In the case of `COc1cc(CNCC2COC2)cc2nc(-c3cccc(-c4ccc(F)cc4-c4nncn4C)c3)oc12` [GZ-1, 1-(2-(4′-Fluoro-2′-(4-methyl-4H-1,2,4-triazol-3-yl)-[1,1′-biphenyl]-3-yl)-7-methoxybenzo[d]oxazol-5-yl)-N-(oxetan-3-ylmethyl)methanamine], the IC50 in assay [1] is less than 200 nM; in assay [3], 200 to 1000 nM. Moreover, the EC50 in assay [2] was 200 to 1000 nM.

As for `COCCNCc1cc(F)c2oc(-c3cc(-c4ccc(F)cc4-c4nncn4C)cc(C4CC4)n3)nc2c1` [AHB-1, [(2-{6-cyclopropyl-4-[4-fluoro-2-(4-methyl-1,2,4-triazol-3-yl)phenyl]pyridin-2-yl}-7-fluoro-1,3-benzoxazol-5-yl)methyl](2-methoxyethyl)amine], the IC50 in assay [1] and in assay [3] was less than 200 nM each time. Moreover, the EC50 in assay [2] is less than 200 nM.

Regarding `Cn1cnnc1-c1cc(F)ccc1-c1cc(-c2nc3cc(CNCC4CC4)ccc3o2)nc(C2CC2)c1` [AEI-1, [(2-{6-Cyclopropyl-4-[4-fluoro-2-(4-methyl-1,2,4-triazol-3-yl)phenyl]pyridin-2-yl}-1,3-benzoxazol-5-yl)methyl](cyclopropylmethyl)amine], the IC50 in assay [1] and in assay [3] was less than 200 nM each time. Besides, in assay [2], the EC50 lay within 200 to 1000 nM.

Regarding `CNCc1cc2nc(-c3cc(-c4ccc(F)cc4-c4nncn4C)cc(C4CC4)n3)oc2c(F)c1F` [AHA-2, [(2-{6-cyclopropyl-4-[4-fluoro-2-(4-methyl-1,2,4-triazol-3-yl)phenyl]pyridin-2-yl}-6,7-difluoro-1,3-benzoxazol-5-yl)methyl](methyl)amine], the IC50 in assay [1] was less than 200 nM; in assay [3], 200 to 1000 nM. For the same molecule, the EC50 in assay [2] fell in the range of 1000 to 10000 nM.

In the case of `Cn1cnnc1-c1cc(C#N)ccc1-c1cc(-c2nc3cc(CN4C[C@@H]5C[C@H]4CO5)cc(F)c3o2)nc(C2CC2)c1` [AGH-4, 4-(2-Cyclopropyl-6-{7-fluoro-5-[(1S,4S)-2-oxa-5-azabicyclo[2.2.1]heptan-5-ylmethyl]-1,3-benzoxazol-2-yl}pyridin-4-yl)-3-(4-methyl-1,2,4-triazol-3-yl)benzonitrile], the IC50 in assay [1] and in assay [3] was 200 to 1000 nM each time. For the same molecule, in assay [2], the half-maximal effective concentration (EC50) was in the range of 1000 to 10000 nM.
